Results on six compounds are retold here after paper PMC8887546, “Design and Synthesis of Brain Penetrant Glycopeptide Analogues of PACAP With Neuroprotective Potential for Traumatic Brain Injury and Parkinsonism” (Frontiers in drug discovery, 2022).

What all share (type): cell-based
One assay deals with T1, human PAC1 receptor (Homo sapiens, UniProt P41586).
T1 construct: expressed in transfected cells; host or cells: CHO cells (G418 selection)
T1 sequence (P41586 21-468): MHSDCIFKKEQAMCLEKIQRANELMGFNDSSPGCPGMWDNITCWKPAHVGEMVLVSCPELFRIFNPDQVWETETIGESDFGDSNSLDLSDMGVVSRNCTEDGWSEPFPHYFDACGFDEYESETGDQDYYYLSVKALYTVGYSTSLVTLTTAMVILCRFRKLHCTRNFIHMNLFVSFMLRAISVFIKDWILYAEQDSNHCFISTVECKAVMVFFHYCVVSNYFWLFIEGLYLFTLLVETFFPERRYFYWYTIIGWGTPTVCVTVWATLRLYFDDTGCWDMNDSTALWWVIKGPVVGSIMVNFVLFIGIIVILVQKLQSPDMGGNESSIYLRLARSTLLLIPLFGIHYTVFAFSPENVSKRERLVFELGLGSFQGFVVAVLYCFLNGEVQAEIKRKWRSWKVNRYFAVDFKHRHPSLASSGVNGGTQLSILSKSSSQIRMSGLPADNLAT
Description: cAMP stimulation in CHO cells expressing PAC1. The settings on record: for Emax: CHO. The protocol: (§1) Briefly, human PAC1, VPAC1, and VPAC2 receptors expressed in CHO cells were used for all experiments. Cells were grown in 50:50 DMEM-F12 medium with 10% heat-inactivated fetal bovine serum, 1X penicillin-streptomycin supplement, and 500 μg/ml G418 (neomycin) to maintain selection (all from ThermoFisher) at 37°C with 5% CO2 atmosphere. For the cAMP assay, cells were seeded at 20,000 cells/well in a 96 well plate, recovered overnight, then serum starved for 4 h. The cells were then incubated with 500 μM IBMX for 20 min, followed by agonist concentration curves in 500 μM IBMX media for 10 min. The reaction was terminated, boiled, then collected, followed by competition with 7 μg of bovine protein kinase A (Sigma-Aldrich) and ∼1 pmol of ^3H-cAMP (PerkinElmer). The assay was incubated at room temp for 1 h, then collected onto GF/B filter plates and the data read using a MicroBeta2 scintillation counter (PerkinElmer).

The target in a further assay is T2, human VPAC2 receptor (Homo sapiens, UniProt P41587).
T2 construct: expressed in transfected cells; host or cells: CHO cells (G418 selection)
T2 sequence (P41587 24-438): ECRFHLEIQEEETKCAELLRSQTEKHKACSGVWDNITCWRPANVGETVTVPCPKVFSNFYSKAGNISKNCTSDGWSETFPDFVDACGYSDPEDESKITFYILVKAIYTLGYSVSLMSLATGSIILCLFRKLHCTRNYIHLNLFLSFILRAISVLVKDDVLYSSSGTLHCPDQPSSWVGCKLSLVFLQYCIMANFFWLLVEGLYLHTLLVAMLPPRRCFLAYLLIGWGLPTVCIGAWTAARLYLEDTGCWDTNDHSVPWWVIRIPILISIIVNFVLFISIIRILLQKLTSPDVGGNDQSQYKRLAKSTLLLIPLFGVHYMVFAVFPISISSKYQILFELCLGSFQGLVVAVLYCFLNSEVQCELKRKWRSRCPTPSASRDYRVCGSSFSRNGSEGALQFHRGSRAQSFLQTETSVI
As to the kind of experiment: cAMP stimulation in CHO cells expressing VPAC2. Particulars: for Emax: CHO. The procedure: as §1

Another assay concerns the target T3, human VPAC1 receptor (Homo sapiens, UniProt P32241).
T3 construct: expressed in transfected cells; host or cells: CHO cells (G418 selection)
T3 sequence (P32241 31-457): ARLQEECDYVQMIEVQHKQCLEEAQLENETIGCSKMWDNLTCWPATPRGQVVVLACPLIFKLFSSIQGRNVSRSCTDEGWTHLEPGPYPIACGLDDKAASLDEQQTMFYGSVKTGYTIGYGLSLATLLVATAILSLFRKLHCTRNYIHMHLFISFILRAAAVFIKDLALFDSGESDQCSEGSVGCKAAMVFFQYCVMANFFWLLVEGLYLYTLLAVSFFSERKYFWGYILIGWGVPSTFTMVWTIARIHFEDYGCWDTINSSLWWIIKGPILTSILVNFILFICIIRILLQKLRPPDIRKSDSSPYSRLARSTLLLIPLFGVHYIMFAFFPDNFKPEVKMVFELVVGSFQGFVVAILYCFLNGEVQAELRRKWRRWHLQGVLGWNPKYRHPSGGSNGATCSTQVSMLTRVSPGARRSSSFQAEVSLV
As to the kind of experiment: cAMP stimulation in CHO cells expressing VPAC1. The settings on record: for Emax: CHO, read-out: VPAC1 Emax; for EC50: read-out: VPAC1 EC50.

In general, EC50 refers to the concentration needed to bring the measured effect to its halfway point. In general, Emax refers to the greatest response seen or fitted, relative to the assay's reference.

For the compound `CCCC[C@@H](NC(=O)CNC(=O)[C@H](CC(=O)O)NC(=O)[C@@H](CO)NC(=O)[C@H](Cc1c[nH]cn1)NC(C)=O)C(=O)N[C@@H](Cc1ccccc1)C(=O)N[C@H](C(=O)N[C@@H](CC(=O)O)C(=O)N[C@@H](CO)C(=O)N[C@@H](Cc1ccc(O)cc1)C(=O)N[C@@H](CO)C(=O)N[C@@H](CCCNC(=N)N)C(=O)N[C@@H](Cc1ccc(O)cc1)C(=O)N[C@@H](CCCNC(=N)N)C(=O)N[C@@H](CCCCN)C(=O)N[C@@H](CCC(N)=O)C(=O)N[C@@H](CCC)C(=O)N[C@@H](C)C(=O)N[C@H](C(=O)N[C@@H](CCCCN)C(=O)N[C@@H](CCCCN)C(=O)N[C@@H](Cc1ccc(O)cc1)C(=O)N[C@@H](CC(C)C)C(=O)N[C@@H](C)C(=O)N[C@@H](C)C(=O)N[C@H](C(=O)N[C@@H](CC(C)C)C(=O)N[C@@H](CO[C@@H]1O[C@H](CO)[C@@H](O)[C@H](O)[C@H]1O)C(N)=O)C(C)C)C(C)C)[C@@H](C)O` [Ac-CRA 3019], the EC50 was 1640 nM at human PAC1 receptor and greater than 2500 nM on human VPAC2 receptor. Further, the Emax at human PAC1 receptor turned out to be 58%; at human VPAC2 receptor, 62%; on human VPAC1 receptor, 18%.
As to `CCC[C@H](NC(=O)[C@H](CCC(N)=O)NC(=O)[C@H](CCCCN)NC(=O)[C@H](CCCNC(=N)N)NC(=O)[C@H](Cc1ccc(O)cc1)NC(=O)[C@H](CCCNC(=N)N)NC(=O)[C@H](CO)NC(=O)[C@H](Cc1ccc(O)cc1)NC(=O)[C@H](CO)NC(=O)[C@H](CC(=O)O)NC(=O)[C@@H](NC(=O)[C@H](Cc1ccccc1)NC(=O)[C@@H](CCC)NC(=O)CNC(=O)[C@H](CC(=O)O)NC(=O)[C@@H](CO)NC(=O)[C@H](Cc1c[nH]cn1)NC(C)=O)[C@@H](C)O)C(=O)N[C@@H](C)C(=O)N[C@H](C(=O)N[C@@H](CCCCN)C(=O)N[C@@H](CCCCN)C(=O)N[C@@H](Cc1ccc(O)cc1)C(=O)N[C@@H](CC(C)C)C(=O)N[C@@H](C)C(=O)N[C@@H](C)C(=O)N[C@H](C(=O)N[C@@H](CC(C)C)C(=O)N[C@@H](CO[C@@H]1O[C@H](CO)[C@@H](O)[C@H](O)[C@H]1O)C(N)=O)C(C)C)C(C)C` [Ac-CRA 3020], the EC50 is greater than 2500 nM on human PAC1 receptor, greater than 2500 nM on human VPAC2 receptor and 244 nM on human VPAC1 receptor. Also, the figures for the Emax at human PAC1 receptor, on human VPAC2 receptor and on human VPAC1 receptor were 61%, 71% and 36%, respectively.
As for `CCC[C@H](NC(=O)[C@H](CCC(N)=O)NC(=O)[C@H](CCCCN)NC(=O)[C@H](CCCNC(=N)N)NC(=O)[C@H](Cc1ccc(O)cc1)NC(=O)[C@H](CCCNC(=N)N)NC(=O)[C@H](CO)NC(=O)[C@H](Cc1ccc(O)cc1)NC(=O)[C@H](CO)NC(=O)[C@H](CC(=O)O)NC(=O)[C@@H](NC(=O)[C@H](Cc1ccccc1)NC(=O)[C@@H](NC(=O)[C@@H](C)NC(=O)[C@H](CC(=O)O)NC(=O)[C@@H](CO)NC(=O)[C@@H](N)Cc1c[nH]cn1)[C@@H](C)CC)[C@@H](C)O)C(=O)N[C@@H](C)C(=O)N[C@H](C(=O)N[C@@H](CCCCN)C(=O)N[C@@H](CCCCN)C(=O)N[C@@H](Cc1ccc(O)cc1)C(=O)N[C@@H](CC(C)C)C(=O)N[C@@H](C)C(=O)N[C@@H](C)C(=O)N[C@H](C(=O)N[C@@H](CC(C)C)C(=O)N[C@@H](CO[C@@H]1O[C@H](CO)[C@@H](O)[C@H](O)[C@H]1O)C(N)=O)C(C)C)C(C)C` [CRA3021], on human PAC1 receptor, a half-maximal effect (EC50) was put at 32.3 nM and the Emax came out at 90%. Besides, at human VPAC2 receptor, a half-maximal effect (EC50) was put at 517 nM and the Emax is 74%. At human VPAC2 receptor (ratio of cAMP EC50 values), the “Receptor selectivity ratio VPAC2/PAC1” value came out at 16.01 and the “Receptor selectivity ratio VPAC2/VPAC1” value is listed as 13.71. Further, on human VPAC1 receptor, the Emax is 103% and the EC50 came out at 37.7 nM. For the same compound, the “Receptor selectivity ratio VPAC1/PAC1” value on human VPAC1 receptor (ratio of cAMP EC50 values) is 1.17.
For `CCC[C@H](NC(=O)[C@H](CCC(N)=O)NC(=O)[C@H](CCCCN)NC(=O)[C@H](CCCNC(=N)N)NC(=O)[C@H](Cc1ccc(O)cc1)NC(=O)[C@H](CCCNC(=N)N)NC(=O)[C@H](CO)NC(=O)[C@H](Cc1ccc(O)cc1)NC(=O)[C@H](CO)NC(=O)[C@H](CC(=O)O)NC(=O)[C@@H](NC(=O)[C@H](Cc1ccccc1)NC(=O)[C@@H](NC(=O)CNC(=O)[C@H](CC(=O)O)NC(=O)[C@@H](CO)NC(=O)[C@H](Cc1c[nH]cn1)NC(C)=O)[C@@H](C)CC)[C@@H](C)O)C(=O)N[C@@H](C)C(=O)N[C@H](C(=O)N[C@@H](CCCCN)C(=O)N[C@@H](CCCCN)C(=O)N[C@@H](Cc1ccc(O)cc1)C(=O)N[C@@H](CC(C)C)C(=O)N[C@@H](C)C(=O)N[C@@H](C)C(=O)N[C@H](C(=O)N[C@@H](CC(C)C)C(=O)N[C@@H](CO[C@@H]1O[C@H](CO)[C@@H](O[C@@H]2O[C@H](CO)[C@H](O)[C@H](O)[C@H]2O)[C@H](O)[C@H]1O)C(N)=O)C(C)C)C(C)C` [Ac-CRA 3000-Lac], the Emax on human PAC1 receptor came to 86%; at human VPAC2 receptor, 114%; at human VPAC1 receptor, 99%.
In the case of `CCC[C@H](NC(=O)[C@H](CCC(N)=O)NC(=O)[C@H](CCCCN)NC(=O)[C@H](CCCNC(=N)N)NC(=O)[C@H](Cc1ccc(O)cc1)NC(=O)[C@H](CCCNC(=N)N)NC(=O)[C@H](CO)NC(=O)[C@H](Cc1ccc(O)cc1)NC(=O)[C@H](CO)NC(=O)[C@H](CC(=O)O)NC(=O)[C@@H](NC(=O)[C@H](Cc1ccccc1)NC(=O)[C@@H](NC(=O)CNC(=O)[C@H](CC(=O)O)NC(=O)[C@@H](CO)NC(=O)[C@@H](N)Cc1c[nH]cn1)[C@@H](C)CC)[C@@H](C)O)C(=O)N[C@@H](C)C(=O)N[C@H](C(=O)N[C@@H](CCCCN)C(=O)N[C@@H](CCCCN)C(=O)N[C@@H](Cc1ccc(O)cc1)C(=O)N[C@@H](CC(C)C)C(=O)N[C@@H](C)C(=O)N[C@@H](C)C(=O)N[C@@H](CO[C@@H]1O[C@H](CO)[C@@H](O)[C@H](O)[C@H]1O)C(=O)N[C@@H](CC(C)C)C(N)=O)C(C)C` [CRA3002], the EC50 at human PAC1 receptor is greater than 250 nM; at human VPAC2 receptor, greater than 2500 nM; on human VPAC1 receptor it was 5.9 nM. Moreover, the Emax at human PAC1 receptor was -79%; on human VPAC1 receptor, 93%.
Turning to `CCC[C@H](NC(=O)[C@H](CCC(N)=O)NC(=O)[C@H](CCCCN)NC(=O)[C@H](CCCNC(=N)N)NC(=O)[C@H](Cc1ccc(O)cc1)NC(=O)[C@H](CCCNC(=N)N)NC(=O)[C@H](CO)NC(=O)[C@H](Cc1ccc(O)cc1)NC(=O)[C@H](CO)NC(=O)[C@H](CC(=O)O)NC(=O)[C@@H](NC(=O)[C@H](Cc1ccccc1)NC(=O)[C@@H](NC(=O)CNC(=O)[C@H](CC(=O)O)NC(=O)[C@@H](CO)NC(=O)[C@H](Cc1c[nH]cn1)NC(C)=O)[C@@H](C)CC)[C@@H](C)O)C(=O)N[C@@H](C)C(=O)N[C@H](C(=O)N[C@@H](CCCCN)C(=O)N[C@@H](CCCCN)C(=O)N[C@@H](Cc1ccc(O)cc1)C(=O)N[C@@H](CC(C)C)C(=O)N[C@@H](C)C(=O)N[C@@H](C)C(=O)N[C@H](C(=O)N[C@@H](CC(C)C)C(=O)N[C@@H](CO[C@@H]1O[C@H](CO)[C@@H](O)[C@H](O)[C@H]1O)C(N)=O)C(C)C)C(C)C` [Ac-CRA3000], the values for the Emax at human PAC1 receptor, on human VPAC2 receptor and at human VPAC1 receptor were 90%, 106% and 94%, respectively.
